Converted amounts (≈) assume the structure as drawn.
Tests used:
[1] = reference [31]; cited from earlier work
[2] = Equilibrium solubility in fasted state simulated intestinal fluid (FaSSIF); type: physicochemical; conditions: thermodynamic from solid, pH 6.5, 37° C., read-out: equilibrium solubility of crystalline DHM in FaSSIF
[3] = Equilibrium solubility in fed state simulated intestinal fluid (FeSSIF); type: physicochemical; conditions: thermodynamic from solid, pH 5.0, 37° C., read-out: equilibrium solubility of crystalline DHM in FeSSIF

solubility thermodynamic [2]: ~50 µg/mL (≈ 156 µM)
solubility thermodynamic [3]: ~140 µg/mL (≈ 437 µM)
Structure (SMILES): O=C1c2c(O)cc(O)cc2O[C@H](c2cc(O)c(O)c(O)c2)[C@H]1O [DHM, dihydromyricetin]
oral bioavailability [1]: less than 5%
